Key:
MDA-MB-231 = test: Antiproliferative activity against human MDA-MB-231 cells measured by MTT assay; type: functional, cell-based
MDA-MB-468 = test: Antiproliferative activity against human MDA-MB-468 cells measured by MTT assay; type: functional, cell-based
MCF7 = test: Antiproliferative activity against human MCF7 cells measured by MTT assay; type: functional, cell-based
[1] = target: T1, Extracellular serine/threonine protein kinase FAM20C (Homo sapiens) (UniProt Q8IXL6); test: Inhibition of Fam20C (unknown origin) assessed as reduction in inorganic phosphate release in presence of ATP at 10 uM measured by Malachite green phosphate staining based micro plate reader assay relative to control
T1 sequence (whole entry): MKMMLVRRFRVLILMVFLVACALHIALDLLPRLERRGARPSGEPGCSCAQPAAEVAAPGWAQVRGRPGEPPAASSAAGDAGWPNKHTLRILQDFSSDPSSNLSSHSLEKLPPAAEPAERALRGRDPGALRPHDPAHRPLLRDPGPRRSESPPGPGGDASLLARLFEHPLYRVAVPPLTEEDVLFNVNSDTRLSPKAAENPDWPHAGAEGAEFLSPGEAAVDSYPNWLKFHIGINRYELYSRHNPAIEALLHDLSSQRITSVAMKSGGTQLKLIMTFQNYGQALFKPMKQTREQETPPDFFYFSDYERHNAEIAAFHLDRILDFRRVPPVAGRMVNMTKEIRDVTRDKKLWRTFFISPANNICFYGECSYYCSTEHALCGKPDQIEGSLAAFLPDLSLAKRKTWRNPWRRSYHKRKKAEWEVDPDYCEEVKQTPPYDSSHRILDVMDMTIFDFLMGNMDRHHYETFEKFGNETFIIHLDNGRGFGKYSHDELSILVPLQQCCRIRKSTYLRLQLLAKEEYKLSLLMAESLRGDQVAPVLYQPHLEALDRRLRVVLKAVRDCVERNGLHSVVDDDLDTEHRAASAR

Compound	IC50 (MDA-MB-231)	IC50 (MDA-MB-468)	IC50 (MCF7)	inhibition [1]
COc1ccc(Nc2cc(C(F)(F)F)nc(Nc3ccc(NS(=O)(=O)c4ccccc4Cl)cc3)n2)cc1	43.6 µM	> 50 µM	> 50 µM	21%
O=S(=O)(Nc1ccc(Nc2nc(Nc3ccc(F)cc3)cc(C(F)(F)F)n2)cc1)c1ccc(C(F)(F)F)cc1	> 50 µM	> 50 µM	17.2 µM	15%
COc1ccc(Nc2cc(C)nc(Nc3ccc(NS(=O)(=O)c4ccccc4Cl)cc3)n2)cc1	15.3 µM	> 50 µM	> 50 µM	40%
O=S(=O)(Nc1ccc(Nc2nc(Nc3ccc(F)cc3)cc(C(F)(F)F)n2)cc1)c1ccccc1OC(F)(F)F	20.8 µM	> 50 µM	16.7 µM	24%
COc1ccc(Nc2cc(C(F)(F)F)nc(Nc3ccc(NS(=O)(=O)c4ccccc4OC(F)(F)F)cc3)n2)cc1	32.9 µM	> 50 µM	14 µM	18%
COc1ccc(Nc2ccnc(Nc3ccc(NS(=O)(=O)c4ccc(C(F)(F)F)cc4)cc3)n2)cc1	27.2 µM	> 50 µM	34.8 µM	18%
Cc1cc(Nc2ccc(F)cc2)nc(Nc2ccc(NS(=O)(=O)c3ccc(C(F)(F)F)cc3)cc2)n1	17.5 µM	32.3 µM	18 µM	24%
COc1ccc(Nc2cc(C(F)(F)F)nc(Nc3ccc(NS(=O)(=O)c4ccc(OC)cc4)cc3)n2)cc1	21.2 µM	> 50 µM	> 50 µM	43%

Other lines, results leading:

IC50 (MDA-MB-231)	IC50 (MDA-MB-468)	IC50 (MCF7)	inhibition [1]	Compound
23.3 µM	25.3 µM	17.3 µM	19%	COc1ccc(Nc2cc(C(F)(F)F)nc(Nc3ccc(NS(=O)(=O)c4ccc(C(F)(F)F)cc4)cc3)n2)cc1
> 50 µM	> 50 µM	> 50 µM	11%	COc1ccc(Nc2cc(C(F)(F)F)nc(Nc3ccc(NS(=O)(=O)c4c(Cl)cc(C)cc4OC)cc3)n2)cc1
7.2 µM	3.62 µM	> 50 µM	49%	COc1ccc(C(=O)Nc2ccc(Nc3nc(C)cc(Nc4cc(OC)c(OC)c(OC)c4)n3)cc2)cc1

Source: ChEMBL document CHEMBL4813922, “Discovery of a novel small-molecule inhibitor of Fam20C that induces apoptosis and inhibits migration in triple negative breast cancer” (Eur J Med Chem, 2021)
